Experimental data reported in ChEMBL document CHEMBL1141229, “On the use of nonfluorescent dye labeled ligands in FRET-based receptor binding studies” (J Med Chem, 2005).

Target: Muscarinic acetylcholine receptor M1 (Homo sapiens, UniProt P11229)
Assay: Displacement of [3H]QNB from EGFP(delta-17)human M1 receptor expressed in HEK cells
Format: cell-based
Conditions: hek293

Sequence of Muscarinic acetylcholine receptor M1 (P11229 whole entry, looked up): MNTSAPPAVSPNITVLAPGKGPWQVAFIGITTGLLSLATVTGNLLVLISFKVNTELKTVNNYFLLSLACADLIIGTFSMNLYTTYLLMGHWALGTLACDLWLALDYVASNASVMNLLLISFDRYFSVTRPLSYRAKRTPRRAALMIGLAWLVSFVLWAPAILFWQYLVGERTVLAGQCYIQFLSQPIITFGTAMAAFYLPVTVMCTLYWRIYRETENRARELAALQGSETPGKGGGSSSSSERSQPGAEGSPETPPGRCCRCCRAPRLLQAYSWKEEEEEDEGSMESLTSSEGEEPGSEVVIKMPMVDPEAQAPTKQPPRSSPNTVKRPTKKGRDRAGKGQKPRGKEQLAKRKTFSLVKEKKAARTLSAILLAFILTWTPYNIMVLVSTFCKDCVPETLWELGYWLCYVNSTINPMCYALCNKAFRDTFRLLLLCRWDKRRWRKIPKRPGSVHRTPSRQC

**Q.** How did the Ki turn out when `CCN1/C(=C/C=C/c2ccc3cc(NC(=O)CCCCC(=O)O)ccc3[n+]2CC)C=Cc2ccccc21` was run?
**A.** > 10000 nM

**Q.** `CCN(CC)c1ccc([C+](c2ccc(N(CC)CC)cc2)c2ccc(S(=O)(=O)NCCCCCC(=O)NCCOCCOCCN3CCN(CC(=O)N4c5ccccc5C(=O)Nc5cccnc54)CC3)cc2S(=O)(=O)[O-])cc1` was tested. Which Ki did it give?
**A.** 189 nM

**Q.** How did the Ki turn out when `O=C(CCCCCNC(=O)CCc1ccc2n1[B-](F)(F)[N+]1=C(c3cccs3)C=CC1=C2)NCCCCN1CCN(CC(=O)N2c3ccccc3C(=O)Nc3cccnc32)CC1` was run?
**A.** 69.7 nM

**Q.** For `CCN(CC)c1ccc2c(-c3ccc(S(=O)(=O)NCCCCCC(=O)NCCOCCOCCN4CCN(CC(=O)N5c6ccccc6C(=O)Nc6cccnc65)CC4)cc3S(=O)(=O)[O-])c3ccc(=[N+](CC)CC)cc-3oc2c1`, which Ki is on record?
**A.** 53.5 nM

**Q.** Which Ki does the source give for `CCN1/C(=C/C=C/c2ccc3cc(NC(=O)CCCCC(=O)NCCOCCOCCN4CCN(CC(=O)N5c6ccccc6C(=O)Nc6cccnc65)CC4)ccc3[n+]2CC)C=Cc2ccccc21` here?
**A.** 29.4 nM

**Q.** How did the Ki turn out when `CCN(CC)c1ccc([C+](c2ccc(N(CC)CC)cc2)c2ccc(S(=O)(=O)NCCCCCC(=O)O)cc2S(=O)(=O)[O-])cc1` was run?
**A.** > 10000 nM
